Several values for one entry are separate records, joined by “and”; a condition that tells them apart may be missing. Identical values can stand only once.
Assays:
Experiment in all cases: LanthaScreen Eu Kinase Binding Assay, panel of 486 biochemical kinase assays
[1] = target: various kinases (Homo sapiens, UniProt P22694); conditions: kinase PRKACB (PRKAC beta); LanthaScreen Binding
[2] = target: various kinases (Homo sapiens, UniProt Q08345); conditions: DDR1
[3] = target: various kinases (Homo sapiens, UniProt Q96RR4); conditions: CAMKK2 (CaMKK beta)
Sequence of various kinases (Homo sapiens, UniProt Q96RR4) (Q96RR4 whole entry): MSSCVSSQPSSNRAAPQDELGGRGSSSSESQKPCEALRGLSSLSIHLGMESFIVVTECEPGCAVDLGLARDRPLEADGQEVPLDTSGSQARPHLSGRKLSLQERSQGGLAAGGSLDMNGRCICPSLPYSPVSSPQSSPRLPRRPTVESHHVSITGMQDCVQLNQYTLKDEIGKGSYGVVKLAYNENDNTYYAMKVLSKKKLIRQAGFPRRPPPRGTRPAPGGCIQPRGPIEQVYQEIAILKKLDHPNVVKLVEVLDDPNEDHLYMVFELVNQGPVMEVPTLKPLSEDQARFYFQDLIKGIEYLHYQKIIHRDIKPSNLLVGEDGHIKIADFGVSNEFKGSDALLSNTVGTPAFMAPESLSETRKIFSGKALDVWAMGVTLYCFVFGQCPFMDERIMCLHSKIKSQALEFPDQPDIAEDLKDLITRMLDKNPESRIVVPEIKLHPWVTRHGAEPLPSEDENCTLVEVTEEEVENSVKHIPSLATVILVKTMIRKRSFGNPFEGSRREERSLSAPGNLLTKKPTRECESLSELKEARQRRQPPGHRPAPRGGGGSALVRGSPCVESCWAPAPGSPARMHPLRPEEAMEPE

[4] = target: various kinases (Homo sapiens, UniProt Q5TCX8); conditions: MLK4
Sequence of various kinases (Homo sapiens, UniProt Q5TCX8) (Q5TCX8 whole entry): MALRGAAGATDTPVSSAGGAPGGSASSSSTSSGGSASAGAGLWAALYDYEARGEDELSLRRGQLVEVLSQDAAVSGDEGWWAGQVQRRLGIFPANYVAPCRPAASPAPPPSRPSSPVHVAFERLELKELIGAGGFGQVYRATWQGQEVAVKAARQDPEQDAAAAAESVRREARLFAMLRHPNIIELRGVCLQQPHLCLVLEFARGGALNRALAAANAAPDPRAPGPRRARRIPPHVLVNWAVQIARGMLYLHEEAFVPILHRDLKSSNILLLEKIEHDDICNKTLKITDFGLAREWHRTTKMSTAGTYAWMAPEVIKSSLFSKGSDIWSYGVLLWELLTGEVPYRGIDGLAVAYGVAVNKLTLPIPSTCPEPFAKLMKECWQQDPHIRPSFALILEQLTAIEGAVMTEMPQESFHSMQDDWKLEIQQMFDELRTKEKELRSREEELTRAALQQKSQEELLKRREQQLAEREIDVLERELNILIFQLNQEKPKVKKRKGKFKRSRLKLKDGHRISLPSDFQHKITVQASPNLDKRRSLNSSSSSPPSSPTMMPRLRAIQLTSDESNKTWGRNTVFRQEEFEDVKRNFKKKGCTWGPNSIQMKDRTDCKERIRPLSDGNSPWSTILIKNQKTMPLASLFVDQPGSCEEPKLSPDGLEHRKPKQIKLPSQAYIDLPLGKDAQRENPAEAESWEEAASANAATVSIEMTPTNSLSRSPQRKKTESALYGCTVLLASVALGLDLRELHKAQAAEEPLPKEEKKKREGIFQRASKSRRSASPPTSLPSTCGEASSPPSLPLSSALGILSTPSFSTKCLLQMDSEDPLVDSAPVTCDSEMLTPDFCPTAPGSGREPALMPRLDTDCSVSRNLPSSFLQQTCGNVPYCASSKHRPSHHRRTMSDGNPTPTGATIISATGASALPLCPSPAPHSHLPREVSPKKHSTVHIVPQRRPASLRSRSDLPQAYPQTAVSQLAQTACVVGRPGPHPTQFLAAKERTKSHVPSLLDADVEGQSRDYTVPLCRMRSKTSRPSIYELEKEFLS

[5] = target: various kinases (Homo sapiens, UniProt P53671); conditions: LIMK2
Sequence of various kinases (Homo sapiens, UniProt P53671) (P53671 whole entry): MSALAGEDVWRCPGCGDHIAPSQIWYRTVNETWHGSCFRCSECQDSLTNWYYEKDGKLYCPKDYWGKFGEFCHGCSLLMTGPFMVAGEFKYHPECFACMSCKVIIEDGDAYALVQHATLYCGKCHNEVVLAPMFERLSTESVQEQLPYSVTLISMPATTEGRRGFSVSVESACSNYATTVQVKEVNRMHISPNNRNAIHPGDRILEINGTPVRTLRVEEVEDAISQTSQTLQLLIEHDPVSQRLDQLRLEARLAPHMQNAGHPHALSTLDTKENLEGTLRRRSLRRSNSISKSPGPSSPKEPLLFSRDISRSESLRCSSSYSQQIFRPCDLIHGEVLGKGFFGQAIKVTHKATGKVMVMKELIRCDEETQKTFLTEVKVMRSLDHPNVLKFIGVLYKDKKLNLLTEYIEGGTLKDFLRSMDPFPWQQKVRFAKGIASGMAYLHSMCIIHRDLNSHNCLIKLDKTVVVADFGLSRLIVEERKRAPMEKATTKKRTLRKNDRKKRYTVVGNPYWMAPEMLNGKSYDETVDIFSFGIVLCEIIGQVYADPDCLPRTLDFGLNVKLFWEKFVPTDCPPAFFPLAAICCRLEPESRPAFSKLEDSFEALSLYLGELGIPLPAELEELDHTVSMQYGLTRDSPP

[6] = target: T1, various kinases (Homo sapiens, UniProt P42680); conditions: kinase TEC; LanthaScreen Binding
T1 sequence (P42680 1-631): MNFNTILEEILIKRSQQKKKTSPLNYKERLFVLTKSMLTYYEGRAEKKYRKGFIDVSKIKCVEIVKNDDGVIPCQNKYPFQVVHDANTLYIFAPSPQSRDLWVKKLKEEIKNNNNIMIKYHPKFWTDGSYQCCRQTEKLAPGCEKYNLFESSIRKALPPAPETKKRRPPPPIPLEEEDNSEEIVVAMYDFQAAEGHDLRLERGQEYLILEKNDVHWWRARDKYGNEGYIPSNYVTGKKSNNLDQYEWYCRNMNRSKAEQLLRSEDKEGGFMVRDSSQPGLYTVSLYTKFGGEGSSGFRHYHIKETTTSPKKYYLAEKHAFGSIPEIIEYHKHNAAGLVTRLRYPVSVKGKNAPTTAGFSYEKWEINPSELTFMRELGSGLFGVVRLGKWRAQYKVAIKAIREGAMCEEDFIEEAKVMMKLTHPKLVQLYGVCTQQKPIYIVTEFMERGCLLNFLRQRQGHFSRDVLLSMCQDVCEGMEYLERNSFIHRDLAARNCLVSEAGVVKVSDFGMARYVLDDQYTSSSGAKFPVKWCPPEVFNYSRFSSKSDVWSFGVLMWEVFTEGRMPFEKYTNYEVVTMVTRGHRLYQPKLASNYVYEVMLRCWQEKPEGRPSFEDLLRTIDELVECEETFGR

[7] = target: various kinases (Homo sapiens, UniProt P10721, D816H); conditions: KIT D816H
[8] = target: T2, various kinases (Homo sapiens, UniProt O94768); conditions: kinase STK17B (DRAK2); LanthaScreen Binding
T2 sequence (O94768 1-372): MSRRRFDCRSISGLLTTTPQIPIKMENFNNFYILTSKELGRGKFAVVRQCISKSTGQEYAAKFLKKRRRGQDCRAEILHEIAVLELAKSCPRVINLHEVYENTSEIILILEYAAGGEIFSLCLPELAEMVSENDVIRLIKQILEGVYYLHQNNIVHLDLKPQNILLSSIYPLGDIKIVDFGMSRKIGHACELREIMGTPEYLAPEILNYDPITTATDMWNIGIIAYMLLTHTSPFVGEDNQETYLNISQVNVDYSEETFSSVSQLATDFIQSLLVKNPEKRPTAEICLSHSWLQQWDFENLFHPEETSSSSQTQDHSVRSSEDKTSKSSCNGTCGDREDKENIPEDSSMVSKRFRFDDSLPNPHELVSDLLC

[9] = target: various kinases (Homo sapiens, UniProt P15056); conditions: BRAF
Sequence of various kinases (Homo sapiens, UniProt P15056) (P15056 whole entry): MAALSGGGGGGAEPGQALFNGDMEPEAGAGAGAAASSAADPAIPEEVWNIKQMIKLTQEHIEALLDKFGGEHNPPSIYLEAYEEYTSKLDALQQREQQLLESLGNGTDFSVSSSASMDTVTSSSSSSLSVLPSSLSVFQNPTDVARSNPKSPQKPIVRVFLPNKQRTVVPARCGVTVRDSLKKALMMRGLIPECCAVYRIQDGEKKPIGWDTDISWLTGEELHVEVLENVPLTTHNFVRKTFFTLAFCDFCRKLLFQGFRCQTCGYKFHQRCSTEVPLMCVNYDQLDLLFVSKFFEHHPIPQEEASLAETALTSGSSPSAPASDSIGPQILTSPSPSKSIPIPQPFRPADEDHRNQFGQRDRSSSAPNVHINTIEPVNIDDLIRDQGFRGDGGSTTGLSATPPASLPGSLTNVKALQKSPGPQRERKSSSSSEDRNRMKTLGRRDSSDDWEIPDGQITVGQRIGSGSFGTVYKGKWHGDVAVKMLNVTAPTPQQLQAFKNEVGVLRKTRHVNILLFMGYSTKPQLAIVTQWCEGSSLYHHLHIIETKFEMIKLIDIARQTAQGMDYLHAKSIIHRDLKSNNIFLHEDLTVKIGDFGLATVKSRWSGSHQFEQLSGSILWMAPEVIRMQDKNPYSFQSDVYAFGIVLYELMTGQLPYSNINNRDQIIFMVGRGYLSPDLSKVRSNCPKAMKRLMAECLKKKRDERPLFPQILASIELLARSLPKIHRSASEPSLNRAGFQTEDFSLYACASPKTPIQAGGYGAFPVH

[10] = target: T3, various kinases (Homo sapiens, UniProt Q6PHR2); conditions: kinase ULK3; LanthaScreen Binding
T3 sequence (Q6PHR2 1-472): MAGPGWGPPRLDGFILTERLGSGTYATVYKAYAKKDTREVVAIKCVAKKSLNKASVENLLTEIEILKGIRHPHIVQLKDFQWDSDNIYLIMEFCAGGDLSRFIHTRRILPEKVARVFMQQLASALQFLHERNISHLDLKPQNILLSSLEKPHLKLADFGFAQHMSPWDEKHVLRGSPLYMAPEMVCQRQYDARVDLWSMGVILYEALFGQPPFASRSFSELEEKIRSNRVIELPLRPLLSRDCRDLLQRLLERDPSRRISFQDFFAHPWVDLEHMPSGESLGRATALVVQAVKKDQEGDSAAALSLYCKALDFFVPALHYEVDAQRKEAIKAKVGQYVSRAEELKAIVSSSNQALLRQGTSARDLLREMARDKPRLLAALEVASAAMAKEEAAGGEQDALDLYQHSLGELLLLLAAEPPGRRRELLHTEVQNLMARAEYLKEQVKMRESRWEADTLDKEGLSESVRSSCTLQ

[11] = target: various kinases (Homo sapiens, UniProt Q13131)
Sequence of various kinases (Homo sapiens, UniProt Q13131) (Q13131 whole entry): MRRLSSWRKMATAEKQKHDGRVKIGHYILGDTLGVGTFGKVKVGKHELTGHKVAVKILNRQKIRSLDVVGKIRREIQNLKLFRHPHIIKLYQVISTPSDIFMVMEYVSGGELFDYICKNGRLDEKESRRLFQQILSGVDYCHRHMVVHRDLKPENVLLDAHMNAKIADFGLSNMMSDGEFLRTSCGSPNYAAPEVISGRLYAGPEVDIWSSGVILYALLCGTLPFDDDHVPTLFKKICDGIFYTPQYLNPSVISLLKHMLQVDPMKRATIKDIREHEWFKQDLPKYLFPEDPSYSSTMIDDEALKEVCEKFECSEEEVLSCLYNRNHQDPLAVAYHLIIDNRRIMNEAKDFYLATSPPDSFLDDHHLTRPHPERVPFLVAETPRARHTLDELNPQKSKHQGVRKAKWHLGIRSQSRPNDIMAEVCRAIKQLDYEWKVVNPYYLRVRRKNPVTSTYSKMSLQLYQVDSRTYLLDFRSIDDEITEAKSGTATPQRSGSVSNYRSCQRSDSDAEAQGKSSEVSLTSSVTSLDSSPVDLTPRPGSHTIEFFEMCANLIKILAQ

Sequence of various kinases (Homo sapiens, UniProt Q08345) (Q08345 19-913): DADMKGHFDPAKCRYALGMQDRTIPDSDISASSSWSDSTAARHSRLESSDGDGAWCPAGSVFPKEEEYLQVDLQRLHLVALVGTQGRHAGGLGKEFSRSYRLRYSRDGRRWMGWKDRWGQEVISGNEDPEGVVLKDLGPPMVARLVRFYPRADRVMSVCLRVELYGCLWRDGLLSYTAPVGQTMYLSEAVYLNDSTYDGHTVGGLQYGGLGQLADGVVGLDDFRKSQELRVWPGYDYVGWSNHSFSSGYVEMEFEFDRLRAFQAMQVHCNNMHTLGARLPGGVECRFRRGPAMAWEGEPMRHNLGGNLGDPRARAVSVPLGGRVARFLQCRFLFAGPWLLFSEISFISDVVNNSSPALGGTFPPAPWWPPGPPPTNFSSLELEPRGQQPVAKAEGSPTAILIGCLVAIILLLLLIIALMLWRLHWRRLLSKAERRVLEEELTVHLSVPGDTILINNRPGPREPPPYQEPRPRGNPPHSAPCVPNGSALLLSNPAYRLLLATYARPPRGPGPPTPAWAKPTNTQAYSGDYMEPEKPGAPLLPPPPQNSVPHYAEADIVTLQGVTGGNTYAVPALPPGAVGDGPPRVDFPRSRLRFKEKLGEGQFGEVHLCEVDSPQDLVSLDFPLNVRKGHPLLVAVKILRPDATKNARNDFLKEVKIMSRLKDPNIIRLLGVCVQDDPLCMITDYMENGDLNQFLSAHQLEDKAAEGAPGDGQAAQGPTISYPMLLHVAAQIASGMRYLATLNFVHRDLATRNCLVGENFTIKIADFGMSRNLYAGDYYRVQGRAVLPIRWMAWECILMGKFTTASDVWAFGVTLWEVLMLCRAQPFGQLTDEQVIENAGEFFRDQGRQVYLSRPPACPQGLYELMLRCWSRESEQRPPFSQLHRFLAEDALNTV

COc1ccc2c(c1)[C@]1(C[C@H]1c1ccc3c(/C=C/c4ccc(CN5C[C@@H](C)O[C@@H](C)C5)cc4)n[nH]c3c1)C(=O)N2 [CFI-400945]
% Inhibition Average [1]: -4%
% Inhibition Duplicate #1 [1]: -6%
% Inhibition Duplicate #2 [1]: -3%
% Inhibition [2]: 46% and 45%
% Inhibition [3]: 33% and 23%
% Inhibition [4]: 8% and 4%
% Inhibition [5]: 4% and 0%
% Inhibition Average [6]: -1%
% Inhibition Duplicate #1 [6]: 1%
% Inhibition Duplicate #2 [6]: -3%
% Inhibition [7]: 21% and 20%
% Inhibition Average [8]: 18%
% Inhibition Duplicate #1 [8]: 21%
% Inhibition Duplicate #2 [8]: 16%
% Inhibition [9]: 0% and 6%
% Inhibition Average [10]: 0%
% Inhibition Duplicate #1 [10]: -4%
% Inhibition Duplicate #2 [10]: 3%
% Inhibition ([11]; AMPK (A1/B1/G2)): 13% and 9%
% Inhibition ([11]; AMPK (A1/B1/G3)): 10% and 15%
% Inhibition ([11]; AMPK (A1/B2/G1)): 14% and 13%
